From patent publication US20250073209A1, “COVALENT TARGETING OF RhoA FOR CANCER THERAPY” (The University of Hong Kong, priority 2023, published 2025)

Key:
FLAG-RhoA = biological target: T1, FLAG-RhoA (Homo sapiens, UniProt P61586); test: CL16-alkyne labeling of FLAG-RhoA in HCT116 cells (anti-FLAG IP, CuAAC, in-gel fluorescence); type: cell-based; settings: after immunoprecipitation and CuAAC
T1 construct: expressed in transfected cells; host or cells: HCT116
Protocol: HCT116 cells transiently expressing FLAG-RhoA were pre-treated with solvent vehicle or CL16 for 2 h, followed by the incubation with CL16-alkyne in complete medium for another 2 h. The cells were then lysed and subjected to immunoprecipitation by anti-FLAG beads. The enriched proteins were reacted with rhodamine azide through copper-catalyzed azide-alkyne cycloaddition (CuAAC), boiled with sampling buffer and separated by SDS-PAGE. The protein bands were then visualized by their in-gel fluorescence or blotted for RhoA. […] HCT116 cells were pre-treated with solvent vehicle or CL16 for 2 h, followed by the incubation with CL16-alkyne in complete medium for another 2 h. The cells were then lysed, reacted with rhodamine azide through CuAAC, boiled with sampling buffer, separated by SDS-PAGE and imaged. […]
To identify protein target and any off-targets of CL16 in CRCs, a molecular probe of CL16, CL16-alkyne (FIG. 6A), was synthesized. […] The protein bands were then visualized by their in-gel fluorescence or blotted for RhoA. […] The probe-labeled proteins were installed with rhodamine through CuAAC, and visualized by their in-gel fluorescence after SDS-PAGE. A protein band with strong fluorescence was found at −22 kDa in the sample incubated with CL16-alkyne only, in line with the molecular weight of RhoA (FIG. 6C).

Cdc42 = Cdc42 (Homo sapiens, UniProt P60953); test: Cdc42-GTP PAK-PBD pull-down in HT29 cells; type: cell-based; parameters: endogenous in cells; host or cells: HT29; settings: HT29, 30 μM (working concentration for RhoA inhibition)
From the text: The procedure is similar to that for RhoA-GTP assay, except that Rac1-GTP and Cdc42-GTP in CRC cells were first enriched by Rac1 Pull-Down Activation Assay Biochem Kit (Cytoskeleton #BK035) instead of using the RhoA kit. The enriched Rac1-GTP and Cdc42-GTP were then immunoblotted by Rac1/2/3 antibody (CST #2465) and Cdc42 antibody (CST #2462) respectively.
GTP loading onto RhoA is critical for the protein activation and mediating downstream signals. In view of the inhibitions of GDP-to-GTP exchange of RhoA by CL16 in vitro as discussed above, effects of CL16 on RhoA biology in colorectal cancer cells were examined. In the serum starvation-re-stimulation experiment, HCT116 cells were grown in serum-free medium with CL16, Rhosin or solvent control for 24 h, followed by stimulation with 10% FBS for 10 min. The cells were then lysed and the RhoA activity was assayed by the level of RhoA-GTP, which is the active form of RhoA. […] HT29 cells were incubated with solvent vehicle, CL16 or Rhosin in complete medium for 24 h. The cells were then washed, lysed and subjected to rhotekin pull-down for blotting RhoA-GTP, or PAK-PBD pull-down for blotting Rac1-GTP and Cdc42-GTP. Confocal fluorescence images from HCT116 and HT29 cells expressing FRET RhoA-biosensor in the serum starvation-restimulation experiment were taken.

[1] = reported studies; cited from earlier work

T1 sequence (P61586 whole entry): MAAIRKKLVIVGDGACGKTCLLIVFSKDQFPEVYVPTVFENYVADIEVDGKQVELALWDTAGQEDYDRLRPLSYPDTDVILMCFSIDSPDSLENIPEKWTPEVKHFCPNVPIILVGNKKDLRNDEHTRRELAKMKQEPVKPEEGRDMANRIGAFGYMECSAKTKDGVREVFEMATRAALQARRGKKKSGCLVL
Chain of Cdc42 (P60953 whole entry): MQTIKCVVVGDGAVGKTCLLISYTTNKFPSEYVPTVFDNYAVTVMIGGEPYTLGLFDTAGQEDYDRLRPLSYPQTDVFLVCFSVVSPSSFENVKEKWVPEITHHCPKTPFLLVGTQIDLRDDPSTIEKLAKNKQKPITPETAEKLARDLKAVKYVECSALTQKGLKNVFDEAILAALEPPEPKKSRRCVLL

| Compound | probe labeling of FLAG-RhoA (in-gel fluorescence) (FLAG-RhoA) | Cdc42 activity (Cdc42-GTP) (Cdc42) | working concentration (anticancer efficacy) [1] [µM] |
| --- | --- | --- | --- |
| C#CCOc1cccc2oc(C3=NN(C(=O)CCl)C(c4ccco4)C3)cc12 (stereo not drawn) [CL16-alkyne] | strong fluorescence from FLAG-RhoA protein | – | – |
| N[C@H](Cc1c[nH]c2ccccc12)C(=O)N/N=C/c1ccc2nccnc2c1 [Rhosin, reference compound] | – | inhibited Cdc42 | ≥ 30 |
